# According to US4339535A, “Process for preparing antibiotic EM 4940” (E. R. Squibb & Sons, Inc., priority 1980, dated 1982):
# Where two headings read alike, the source gives them in different places.
# Key:
# [1] = solubility; assay type: physicochemical
# [2] = tested on: Acholeplasma laidlawii; test: MIC against mycoplasmas; assay type: cell-based; settings: Table VIII, 48 hours, 37° C., phenol red color change
# [3] = tested on: Escherichia coli; test: MIC aerobic screen, H-59 synthetic agar
# [4] = tested on: Proteus morganii; test: MIC aerobic screen, BA-2 agar; settings: Morganella morganii, strain 9774
# [5] = tested on: Peptococcus variabilis; test: MIC anaerobic screen; assay type: cell-based; settings: Table IV, strain 11,264, read-out: Minimum Inhibitory Concentration
# [6] = tested on: Peptostreptococcus anaerobius; test: MIC anaerobic screen; assay type: cell-based; settings: Table IV, strain 11,263, read-out: Minimum Inhibitory Concentration
# [7] = tested on: Bacteroides fragilis; test: MIC anaerobic screen; assay type: cell-based
# [8] = tested on: T. rubrum; test: MIC against dermatophytes; assay type: cell-based; settings: Trichophyton rubrum; Table VI; strain 9199; 26° C., 48 hours; read-out: Minimum Inhibitory Concentration
# [9] = tested on: Candida albicans; test: MIC against Candida albicans (broth tube dilution); assay type: cell-based; settings: Table V, strain 5314, read-out: Minimum Inhibitory Concentration
# [10] = tested on: Streptococcus faecalis; test: MIC aerobic screen, BA-2 agar; settings: Enterococcus faecalis, strain 9011
# [11] = tested on: Hemophilus vaginalis; test: MIC anaerobic screen; assay type: cell-based; settings: Table IV
# [12] = tested on: Mycoplasma mycoides; test: microbe, parasite or virus in culture; assay type: cell-based; settings: 48 h
# [13] = tested on: Bifidobacterium dentium; test: MIC anaerobic screen; assay type: cell-based; settings: Table IV, strain 11,260, read-out: Minimum Inhibitory Concentration
# [14] = tested on: Klebsiella aerogenes; test: MIC aerobic screen, H-59 synthetic agar; settings: read-out: Minimum Inhibitory Concentration
# [15] = tested on: Clostridium perfringens; test: microbe, parasite or virus in culture; assay type: cell-based; settings: read-out: Minimum Inhibitory Concentration
# [16] = tested on: Serratia marcescens; test: MIC aerobic screen, BA-2 agar; settings: Serratia marcescens
# [17] = tested on: Serratia marcescens; test: MIC aerobic screen, H-59 synthetic agar
# [18] = tested on: M. canis; test: MIC against dermatophytes; assay type: cell-based; settings: Microsporum canis; Table VI; strain 9237; 26° C., 48 hours; read-out: Minimum Inhibitory Concentration
# [19] = tested on: Trichomonas vaginalis; test: MIC against Trichomonas vaginalis; assay type: cell-based; settings: Table VII, strain 8560, anaerobic, 37° C., 40 hours, read-out: Minimum Inhibitory Concentration
# [20] = tested on: Klebsiella penumoniae; test: MIC aerobic screen, H-59 synthetic agar; settings: read-out: Minimum Inhibitory Concentration
# [21] = tested on: Salmonella typhimurium; test: MIC aerobic screen, BA-2 agar
# [22] = tested on: Acinetobacter calcoaceticus; test: MIC aerobic screen, BA-2 agar; settings: Acinetobacter calcoaceticus, strain 8333
# [23] = tested on: Pseudomonas aeruginosa; test: MIC aerobic screen, BA-2 agar; settings: Pseudomonas aeruginosa
# [24] = tested on: Propionibacterium acnes; test: MIC anaerobic screen; assay type: cell-based; settings: Cutibacterium acnes, Table IV, strain 4020, read-out: Minimum Inhibitory Concentration
# [25] = tested on: Enterobacter cloacae; test: MIC aerobic screen, BA-2 agar; settings: Enterobacter cloacae, strain 10,459
# [26] = tested on: Streptococcus faecalis; test: MIC aerobic screen, H-59 synthetic agar; settings: Enterococcus faecalis, read-out: Minimum Inhibitory Concentration
# [27] = tested on: Clostridium histolyticum; test: MIC anaerobic screen; assay type: cell-based; settings: Hathewaya histolytica, Table IV, strain 8572, read-out: Minimum Inhibitory Concentration
# Experimental: The antibiotic is prepared as described above for the aerobic screen.
# All organisms are maintained in a tube of chopped meat broth with glucose supplied by Scott Laboratories in Rhode Island. Two days prior to running the test 0.1 ml of the maintained culture is transferred to a fresh tube of chopped meat broth, and the tube is incubated at 37° C. for 48 hours. After 48 hours incubation each culture is assumed to have grown to 1×10^8 CFU/ml.
# The organisms are stamped onto antibiotic containing agar plates (Mueller Hinton Agar BBL+5% whole sheep blood+0.2% lysed sheep blood) to give an inoculum level of 10^5 CFU.
# After stamping, the plates are placed in an anaerobic gas pack system (BBL) and incubated at 37° C. for 18 hours.
# [28] = read-out: Minimum Inhibitory Concentration, Table I, BA-2 agar
# [29] = read-out: Minimum Inhibitory Concentration, Table II, additional tests
smiles,measurement,setting,value
"CC1(O)CC(C(N)=O)N=C1c1ncccc1O (stereo not drawn) [EM4940A, 2,4-trans-3,4-dihydro-4-hydroxy-5-(3-hydroxy-2-pyridinyl)-4-methyl-2H-pyrrole-2-carboxamide]",solubility,[1]; hexane,Insoluble
same,solubility,"[1]; methanol, ethanol, ethyl acetate, acetone and chloroform",soluble
same,solubility,[1]; water,Insoluble
same,MIC,[2],100 µg/mL
same,MIC,"[3]; read-out: Minimum Inhibitory Concentration, Table III, H-59 agar, strain 10,404",50 µg/mL
same,MIC,"[3]; read-out: Minimum Inhibitory Concentration, Table III, H-59 agar, strain 10,857",25 µg/mL
same,MIC,[4]; [28],50 µg/mL
same,MIC,[4]; [29],100 µg/mL
same,MIC,[5],50 µg/mL
same,MIC,[6],50 µg/mL
same,MIC,"[7]; Table IV, anaerobic, strain 9005, read-out: Minimum Inhibitory Concentration",50 µg/mL
same,MIC,"[7]; Table IV, anaerobic, strain 10,277, read-out: Minimum Inhibitory Concentration",50 µg/mL
same,MIC,"[7]; Table IV, anaerobic, strain 10,278, read-out: Minimum Inhibitory Concentration",50 µg/mL
same,MIC,"[7]; Table IV, anaerobic, strain 10,279, read-out: Minimum Inhibitory Concentration",50 µg/mL
same,MIC,"[7]; Table IV, anaerobic, strain 10,281, read-out: Minimum Inhibitory Concentration",50 µg/mL
same,MIC,"[7]; Table IV, anaerobic, strain 11,085, read-out: Minimum Inhibitory Concentration",100 µg/mL
same,MIC,"[7]; Table IV, anaerobic, strain 11,086, read-out: Minimum Inhibitory Concentration",50 µg/mL
same,MIC,[7]; read-out: Minimum Inhibitory Concentration,12.5 µg/mL
same,MIC,[8],50 µg/mL
same,MIC,"[9]; Candida albicans, Medium: F4",> 100 µg/mL
same,MIC,[9]; Medium: Yeast Nitrogen Base + Glucose,> 100 µg/mL
same,MIC,[10]; [28],> 100 µg/mL
same,MIC,[10]; [29],> 200 µg/mL
same,MIC,"[11]; strain 8568, read-out: Minimum Inhibitory Concentration",100 µg/mL
same,Minimum Inhibitory Concentration,[11]; strain 9640,100.00 µg/mL
same,MIC,[12],> 100 µg/mL
same,MIC,[13],> 100 µg/mL
same,MIC,[14],50 µg/mL
same,MIC,[15],50 µg/mL
same,MIC,"[16]; read-out: Minimum Inhibitory Concentration, Table I, BA-2 agar, strain 1111",> 100 µg/mL
same,MIC,"[16]; read-out: Minimum Inhibitory Concentration, Table I, BA-2 agar, strain 9782",100 µg/mL
same,MIC,"[16]; read-out: Minimum Inhibitory Concentration, Table II, additional tests, strain 9782",50 µg/mL
same,MIC,"[16]; read-out: Minimum Inhibitory Concentration, Table II, additional tests, strain 11,111",100 µg/mL
same,MIC,"[17]; Serratia marcescens, read-out: Minimum Inhibitory Concentration",100 µg/mL
same,Minimum Inhibitory Concentration,"[17]; Table III, H-59 agar, strain 11,111",100.0 µg/mL
same,MIC,[18],100 µg/mL
same,MIC,[19],12.5 µg/mL
same,MIC,[20],50 µg/mL
same,MIC,"[21]; Salmonella enterica, TYPHIMURIUM, read-out: Minimum Inhibitory Concentration",50 µg/mL
same,Minimum Inhibitory Concentration,"[21]; Table II, additional tests, strain 9201",50 µg/mL
same,MIC,[22]; [28],50 µg/mL
same,MIC,[22]; [29],100 µg/mL
same,MIC,"[23]; read-out: Minimum Inhibitory Concentration, Table I, BA-2 agar, strain 8754",> 100 µg/mL
same,MIC,"[23]; read-out: Minimum Inhibitory Concentration, Table I, BA-2 agar, strain 9330",50 µg/mL
same,MIC,"[23]; read-out: Minimum Inhibitory Concentration, Table I, BA-2 agar, strain 9545",25 µg/mL
same,MIC,"[23]; read-out: Minimum Inhibitory Concentration, Table II, additional tests, strain 8754",100 µg/mL
same,MIC,"[23]; read-out: Minimum Inhibitory Concentration, Table II, additional tests, strain 9330",> 200 µg/mL
same,MIC,"[23]; read-out: Minimum Inhibitory Concentration, Table II, additional tests, strain 9545",12.5 µg/mL
same,MIC,[24],50 µg/mL
same,MIC,[25]; [28],> 100 µg/mL
same,MIC,[25]; [29],50 µg/mL
same,MIC,[26],> 100 µg/mL
same,MIC,[27],12.5 µg/mL
